Measured values taken from patent publication US20030203373A1 (priority 2002, published 2003).
Values joined by “and” are separate entries in the source; they are usually repeats but may differ in a detail not shown here. Equal entries are not always repeated. Ends that are not written are not given here.

Target: T1, ACE from pig kidney (Sus scrofa, UniProt F1RRW5)
T1 construct: 1 mU ACE from pig kidney (EC 3.4.15.1 (Sigma)); purchased Sigma; host or cells: pig kidney (tissue-derived enzyme)
T1 sequence (F1RRW5 34-1309): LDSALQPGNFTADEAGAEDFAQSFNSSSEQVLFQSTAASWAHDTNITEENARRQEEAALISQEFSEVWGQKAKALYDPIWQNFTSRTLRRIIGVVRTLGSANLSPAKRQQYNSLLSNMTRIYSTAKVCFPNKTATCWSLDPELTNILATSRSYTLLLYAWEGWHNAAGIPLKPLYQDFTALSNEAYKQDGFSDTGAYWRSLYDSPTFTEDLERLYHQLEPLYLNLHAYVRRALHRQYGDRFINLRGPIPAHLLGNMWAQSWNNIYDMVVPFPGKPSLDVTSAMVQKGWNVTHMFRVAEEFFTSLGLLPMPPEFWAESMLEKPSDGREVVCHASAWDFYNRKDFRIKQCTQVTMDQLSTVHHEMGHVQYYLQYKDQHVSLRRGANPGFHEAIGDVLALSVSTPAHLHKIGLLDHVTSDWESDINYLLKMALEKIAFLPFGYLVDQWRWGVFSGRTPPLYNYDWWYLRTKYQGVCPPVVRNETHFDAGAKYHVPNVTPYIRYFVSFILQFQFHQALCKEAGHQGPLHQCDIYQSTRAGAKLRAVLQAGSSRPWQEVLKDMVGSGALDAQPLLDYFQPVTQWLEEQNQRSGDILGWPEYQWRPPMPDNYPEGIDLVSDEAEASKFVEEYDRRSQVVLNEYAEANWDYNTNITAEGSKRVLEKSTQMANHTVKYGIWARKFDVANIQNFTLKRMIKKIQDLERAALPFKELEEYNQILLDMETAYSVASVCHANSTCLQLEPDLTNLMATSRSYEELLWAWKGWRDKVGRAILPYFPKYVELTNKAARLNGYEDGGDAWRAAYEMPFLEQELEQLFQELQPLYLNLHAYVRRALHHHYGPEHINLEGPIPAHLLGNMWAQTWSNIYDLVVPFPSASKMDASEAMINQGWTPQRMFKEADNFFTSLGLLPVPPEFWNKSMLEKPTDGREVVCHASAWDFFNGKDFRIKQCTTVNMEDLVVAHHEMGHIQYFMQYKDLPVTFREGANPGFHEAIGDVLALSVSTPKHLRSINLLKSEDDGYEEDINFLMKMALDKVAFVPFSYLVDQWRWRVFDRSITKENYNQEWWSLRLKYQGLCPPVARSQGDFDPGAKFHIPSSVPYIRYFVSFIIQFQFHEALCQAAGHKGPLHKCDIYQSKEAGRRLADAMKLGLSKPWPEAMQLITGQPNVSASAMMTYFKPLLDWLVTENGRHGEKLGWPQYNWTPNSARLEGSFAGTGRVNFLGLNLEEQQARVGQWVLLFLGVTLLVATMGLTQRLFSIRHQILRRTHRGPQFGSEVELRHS
Assay: biochemical
Type: biochemical
Settings: for IC50: ACE from pig kidney, determined graphically, read-out: IC50-value (ACE inhibition)
Excerpt: These peptides were investigated for their inhibitory effect using an in vitro-ACE-inhibitor-assay with an angiotensin-converting-enzyme derived from pig kidney. Hippuryl-histidyl-leucin was used as a substrate. […] A concrete experimental description is given below.
The principle of the ACE-inhibition-assay was established by Chejung, H. S., Cushman, D. W.: “Inhibition of homogenous angiotensin converting enzyme of rabbit lung by synthetic venom peptides of Bothrops jararaca.” in Biochimica et Biophysica Acta 293, 451-563 (1973).
The assay was performed in 96 well HTRF-plates (Packard). The concentrations used for each well were:
1 mU ACE from pig kidney (EC 3.4.15.1 (Sigma)) in 30 μl of assay buffer (25 mM HEPES; 0,3 M NaCl, pH 8,2) and 20 μl inhibitor dissolved in assay buffer (0,35-200 μM). The reaction was started by adding 50 μl of 2 mM hippuryl-histidyl-leucin (Sigma) in assay buffer. The reaction was performed at room temperature (22° C.) for 30 minutes and terminated by adding 50 μl of 2 M NaOH. Afterwards 50 μl of 0,5% ortho-phtalaldehyd (Sigma) in methanol were added, 5 minutes later followed by 50 μl of 2,5 M HCl-solution to stabilize the developed fluorescence product.
The results were used to calculate the % inhibition. The IC50-values were determined graphically from a curve showing the dose-reaction ratio.
In order to minimize errors due to time-dependent differences, all pipetting steps were performed in a precise time schedule.

[1] = inhibitor 0.39 μM, replicates A-D
[2] = inhibitor 0.39 μM, replicates A-D, 0.39 µM
[3] = inhibitor 0.78125 μM, replicates A-D
[4] = inhibitor 0.78125 μM, replicates A-D, 0.78125 µM
[5] = inhibitor 1.5625 μM, replicates A-D
[6] = inhibitor 1.5625 μM, replicates A-D, 1.5625 µM
[7] = inhibitor 3.125 μM, replicates A-D
[8] = inhibitor 3.125 μM, replicates A-D, 3.125 µM
[9] = inhibitor 6.25 μM, replicates A-D
[10] = inhibitor 6.25 μM, replicates A-D, 6.25 µM
[11] = inhibitor 12.5 μM, replicates A-D
[12] = inhibitor 12.5 μM, replicates A-D, 12.5 µM
[13] = inhibitor 25 μM, replicates A-D
[14] = inhibitor 25 μM, replicates A-D, 25 µM
[15] = inhibitor 50 μM, replicates A-D
[16] = inhibitor 50 μM, replicates A-D, 50 µM
[17] = inhibitor 100 μM, replicates A-D
[18] = inhibitor 100 μM, replicates A-D, 100 µM
[19] = inhibitor 200 μM, replicates A-D
[20] = inhibitor 200 μM, replicates A-D, 200 µM

Substance: LSPLPEVPP [Peptide S546]
- IC50: 3.5 µM
- fluorescence reading (ACE Inhibitor Assay) [1]: 803315 and 773719 and 787391 and 826280
- inhibition at 0.39 µM [1]: 11.1%
- % inhibition (ACE Inhibitor Assay) [2]: 14.38% and 12.86% and 8.53%
- fluorescence reading (ACE Inhibitor Assay) [3]: 719861 and 687713 and 702450 and 763649
- inhibition at 0.78125 µM [3]: 20.4%
- % inhibition (ACE Inhibitor Assay) [4]: 23.96% and 22.32% and 15.5%
- fluorescence reading (ACE Inhibitor Assay) [5]: 591636 and 572728 and 566984 and 657580
- inhibition at 1.5625 µM [5]: 34.7%
- % inhibition (ACE Inhibitor Assay) [6]: 36.77% and 37.41% and 27.32%
- fluorescence reading (ACE Inhibitor Assay) [7]: 483121 and 472396 and 452574 and 495814
- inhibition at 3.125 µM [7]: 46.8%
- % inhibition (ACE Inhibitor Assay) [8]: 47.95% and 50.15% and 45.32%
- fluorescence reading (ACE Inhibitor Assay) [9]: 308510 and 312423 and 322970 and 336576
- inhibition at 6.25 µM [9]: 66.2%
- % inhibition (ACE Inhibitor Assay) [10]: 65.77% and 64.59% and 63.07%
- fluorescence reading (ACE Inhibitor Assay) [11]: 225714 and 208268 and 221839 and 226385
- inhibition at 12.5 µM [11]: 75.4%
- % inhibition (ACE Inhibitor Assay) [12]: 77.32% and 75.86% and 75.35%
- fluorescence reading (ACE Inhibitor Assay) [13]: 116421 and 119382 and 118514 and 124101
- inhibition at 25 µM [13]: 87.6%
- % inhibition (ACE Inhibitor Assay) [14]: 87.27% and 87.36% and 86.74%
- fluorescence reading (ACE Inhibitor Assay) [15]: 69502 and 65379 and 67861 and 73176
- inhibition at 50 µM [15]: 92.8%
- % inhibition (ACE Inhibitor Assay) [16]: 93.28% and 93.01% and 92.41%
- fluorescence reading (ACE Inhibitor Assay) [17]: 37664 and 36789 and 37490 and 39445
- inhibition at 100 µM [17]: 96.4%
- % inhibition (ACE Inhibitor Assay) [18]: 96.47% and 96.39% and 96.17%
- fluorescence reading (ACE Inhibitor Assay) [19]: 22822 and 23110 and 24700 and 22511
- inhibition at 200 µM [19]: 98%
- % inhibition (ACE Inhibitor Assay) [20]: 97.99% and 97.82% and 98.06%

Substance: PLPEVPP [Peptide S548, PLPEVPP]
- IC50: 21 µM
- fluorescence reading (ACE Inhibitor Assay) [1]: 850082 and 861072 and 990310 and 812986
- % inhibition (ACE Inhibitor Assay) [2]: 5,85% and 4,63% and −9,77% and 9,98%
- fluorescence reading (ACE Inhibitor Assay) [3]: 736956 and 848448 and 878121 and 787559
- % inhibition (ACE Inhibitor Assay) [4]: 18,46% and 6,03% and 2,73% and 12,82%
- fluorescence reading (ACE Inhibitor Assay) [5]: 672595 and 802519 and 857919 and 773857
- % inhibition (ACE Inhibitor Assay) [6]: 25,63% and 11,15% and 4,98% and 14,35%
- fluorescence reading (ACE Inhibitor Assay) [7]: 735840 and 756404 and 788637 and 719509
- inhibition at 3.125 µM [7]: 18.6%
- % inhibition (ACE Inhibitor Assay) [8]: 16,29% and 12,7% and 20,4%
- fluorescence reading (ACE Inhibitor Assay) [9]: 644083 and 676136 and 699343 and 628007
- inhibition at 6.25 µM [9]: 28.8%
- % inhibition (ACE Inhibitor Assay) [10]: 25,23% and 22,65% and 30,6%
- fluorescence reading (ACE Inhibitor Assay) [11]: 668264 and 582524 and 619407 and 572641
- inhibition at 12.5 µM [11]: 37.2%
- % inhibition (ACE Inhibitor Assay) [12]: 35,66% and 31,55% and 36,76%
- fluorescence reading (ACE Inhibitor Assay) [13]: 411233 and 394114 and 413347 and 402465
- inhibition at 25 µM [13]: 54.8%
- % inhibition (ACE Inhibitor Assay) [14]: 56,66% and 54,52% and 55,73%
- fluorescence reading (ACE Inhibitor Assay) [15]: 291507 and 326054 and 343249 and 278402
- inhibition at 50 µM [15]: 68.1%
- % inhibition (ACE Inhibitor Assay) [16]: 64,24% and 62,33% and 69,55%
- fluorescence reading (ACE Inhibitor Assay) [17]: 181416 and 194177 and 204171 and 168452
- inhibition at 100 µM [17]: 80.4%
- % inhibition (ACE Inhibitor Assay) [18]: 78,94% and 77,82% and 81,8%
- fluorescence reading (ACE Inhibitor Assay) [19]: 108115 and 108968 and 113955 and 101322
- inhibition at 200 µM [19]: 88.5%
- % inhibition (ACE Inhibitor Assay) [20]: 88,43% and 87,87% and 89,28%
